As a reminder, the pKi is the negative decadic logarithm of the Ki, by convention in mol/L. Lower therefore signals a large Ki.

pKi: −log10 of the molar value.

The target of experiment [1] is Delta-type opioid receptor (Rattus norvegicus, UniProt P33533). The experiment is described as follows: Binding affinity against Opioid receptor delta 1 from rat brain membranes using [3H]DADLE.
The target in experiment [2] is Kappa-type opioid receptor (Cavia porcellus, UniProt P41144). In words: Binding affinity against Opioid receptor kappa 1 from guinea pig brain membranes using [3H]U-69593.
Sequence of Kappa-type opioid receptor (P41144 whole entry): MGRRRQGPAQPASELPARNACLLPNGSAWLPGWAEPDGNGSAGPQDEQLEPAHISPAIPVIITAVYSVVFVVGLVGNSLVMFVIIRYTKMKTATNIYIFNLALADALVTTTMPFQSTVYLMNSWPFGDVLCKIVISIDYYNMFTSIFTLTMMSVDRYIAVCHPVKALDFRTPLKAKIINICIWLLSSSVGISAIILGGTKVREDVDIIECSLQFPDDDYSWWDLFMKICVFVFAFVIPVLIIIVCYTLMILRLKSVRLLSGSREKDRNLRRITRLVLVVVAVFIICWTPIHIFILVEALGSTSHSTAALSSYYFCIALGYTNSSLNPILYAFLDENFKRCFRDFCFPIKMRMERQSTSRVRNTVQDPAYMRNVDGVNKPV
The next experiment has as its target Mu-type opioid receptor (Rattus norvegicus, UniProt P33535). The experiment is described as follows: Binding affinity against Opioid receptor mu 1 from rat brain membranes using [3H]DAMGO.

Sequence of Delta-type opioid receptor (P33533 whole entry): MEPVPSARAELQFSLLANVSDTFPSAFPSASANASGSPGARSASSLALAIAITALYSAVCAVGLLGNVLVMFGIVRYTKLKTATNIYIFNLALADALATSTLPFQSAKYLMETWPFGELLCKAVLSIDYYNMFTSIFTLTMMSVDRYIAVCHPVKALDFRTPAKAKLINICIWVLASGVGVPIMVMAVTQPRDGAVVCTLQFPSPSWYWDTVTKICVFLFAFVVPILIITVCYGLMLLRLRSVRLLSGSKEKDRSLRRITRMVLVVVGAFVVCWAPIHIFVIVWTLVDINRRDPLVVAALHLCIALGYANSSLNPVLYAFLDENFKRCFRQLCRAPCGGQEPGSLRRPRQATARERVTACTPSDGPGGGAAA
Sequence of Mu-type opioid receptor (P33535 whole entry): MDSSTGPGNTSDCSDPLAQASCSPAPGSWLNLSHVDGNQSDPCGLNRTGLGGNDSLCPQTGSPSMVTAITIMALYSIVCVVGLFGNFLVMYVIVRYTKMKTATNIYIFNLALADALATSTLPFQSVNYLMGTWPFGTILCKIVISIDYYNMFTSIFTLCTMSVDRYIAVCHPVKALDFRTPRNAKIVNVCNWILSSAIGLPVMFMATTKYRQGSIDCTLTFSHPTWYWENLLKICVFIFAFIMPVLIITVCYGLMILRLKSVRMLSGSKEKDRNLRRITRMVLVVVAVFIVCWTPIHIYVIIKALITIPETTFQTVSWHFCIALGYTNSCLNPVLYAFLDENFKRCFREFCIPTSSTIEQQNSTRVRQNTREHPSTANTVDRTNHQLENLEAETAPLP

As to `COc1ccc2c(c1O)[C@]13CCN(CC4CC4)C(C2)[C@@H]1CC1c2ccccc2NC1C3` (stereo partly specified), the pKi in experiment [1] is 8.15; in experiment [2] it was 5.10; at Mu-type opioid receptor it was 4.88.
Take `COc1ccc2c(c1O)[C@]13CCN(C)C(C2)[C@@H]1CC1c2ccccc2NC1C3` (stereo partly specified): the pKi in experiment [1] is 7.03; on Mu-type opioid receptor it was 5.55.
As to `CCN1CC[C@]23CC4Nc5ccccc5C4C[C@@]2(O)C1Cc1ccc(OC)c(O)c13` (stereo partly specified), the pKi in experiment [1] is 6.16; at Mu-type opioid receptor it was 6.10.
Take `C=C(C)CN1CCC23c4c5ccc(OC)c4O[C@H]2C(=O)/C(=C\c2ccccc2)C[C@@]3(O)C1C5` (stereo partly specified): the pKi in experiment [1] was 5.47.
`C=C(C)CN1CCC23c4c5ccc(O)c4O[C@H]2c2ncc(-c4ccc(Cl)cc4)cc2C[C@@]3(O)C1C5` (stereo partly specified): the pKi in experiment [1] was 7.80; in experiment [2], 6.52.
The matching figures for `C=C(C)CN1CCC23c4c5ccc(OC)c4O[C@H]2c2ncc(-c4ccc(Cl)cc4)cc2C[C@@]3(O)C1C5` (stereo partly specified): 6.59 and 5.49.
Regarding `CCN1CC[C@]23CC4Nc5ccccc5C4C[C@H]2C1Cc1ccc(OC)c(O)c13` (stereo partly specified), the pKi is 6.29 in experiment [1], 5.44 in experiment [2] and 5.87 on Mu-type opioid receptor.
Turning to `COc1ccc2c(c1O)[C@]13CCN(C)C(C2)[C@]1(O)CC1c2ccccc2NC1C3` (stereo partly specified), the pKi in experiment [1] is 6.66; on Mu-type opioid receptor it was 5.55.
In experiment [1], `CCCCC1c2c([nH]c3ccccc23)[C@H]2Oc3c(OC)ccc4c3[C@@]23CCN(C)[C@H](C4)[C@H]13` (stereo partly specified) showed a pKi of 6.43.
On to `CC(C)=CCN1CC[C@]23c4c5ccc(O)c4O[C@@H]2c2[nH]c4ccccc4c2C[C@@]3(O)[C@H]1C5`, for which the pKi is 7.60 in experiment [1], 5.49 in experiment [2] and 5.55 on Mu-type opioid receptor.
Regarding `CC(C)CCN1CC[C@]23c4c5ccc(O)c4O[C@@H]2c2[nH]c4ccccc4c2C[C@@]3(O)[C@H]1C5`, the results for the pKi (in experiment [1]; in experiment [2]; at Mu-type opioid receptor) were 8.42, 6.17 and 5.89, respectively.
Turning to `CCCCCCCN1CC[C@]23c4c5ccc(O)c4O[C@@H]2c2[nH]c4ccccc4c2C[C@@]3(O)[C@H]1C5`, the values for the pKi (in experiment [1]; on Mu-type opioid receptor) were 7.10 and 5.34, respectively.
For `CCCCN1CC[C@]23c4c5ccc(O)c4O[C@@H]2c2[nH]c4ccccc4c2C[C@@]3(O)[C@H]1C5`, the values for the pKi (in experiment [1]; in experiment [2]; at Mu-type opioid receptor) were 8.08, 6.05 and 5.89, respectively.
On the same counts, the results for `CCCCC1c2c([nH]c3ccccc23)[C@H]2Oc3c(O)ccc4c3[C@@]23CCN(C)[C@H](C4)[C@H]13` (stereo partly specified) are 7.66, 6.14 and 5.96.
The matching figures for `CC(C)CN1CC[C@]23c4c5ccc(O)c4O[C@@H]2c2[nH]c4ccccc4c2C[C@@]3(O)[C@H]1C5`: 8.42, 6.19 and 5.59.
Regarding `CCCCCCN1CC[C@]23c4c5ccc(O)c4O[C@@H]2c2[nH]c4ccccc4c2C[C@@]3(O)[C@H]1C5`, the pKi in experiment [1] is 7.59; in experiment [2], 5.51; at Mu-type opioid receptor, 5.34.
The matching figures for `CCCN1CC[C@]23c4c5ccc(O)c4O[C@@H]2c2[nH]c4ccccc4c2C[C@@]3(O)[C@H]1C5`: 8.70, 6.42 and 6.15.
With `CN1CC[C@]23c4c5ccc(O)c4O[C@@H]2c2[nH]c4ccccc4c2C[C@H]3[C@H]1C5`, the pKi in experiment [1] is 8.62; at Mu-type opioid receptor, 6.15.
With `CC1c2c([nH]c3ccccc23)[C@H]2Oc3c(O)ccc4c3[C@@]23CCN(C)[C@H](C4)[C@H]13` (stereo partly specified), the pKi was 9.15 in experiment [1], 6.90 in experiment [2] and 6.62 on Mu-type opioid receptor.
`C=C(C)CN1CC[C@]23c4c5ccc(OC)c4O[C@@H]2c2[nH]c4ccccc4c2C[C@@]3(O)[C@H]1C5`: the pKi in experiment [1] was 6.30.
On the same count and under the same terms, under `COc1ccc2c3c1O[C@@H]1c4[nH]c5ccccc5c4C[C@H]4[C@@H](C2)N(C)CC[C@]314` stands 7.02.
Turning to `C/C=C/CN1CC[C@]23c4c5ccc(O)c4O[C@@H]2c2[nH]c4ccccc4c2C[C@@]3(O)[C@H]1C5`, the pKi in experiment [1] is 8.13; in experiment [2], 6.02; on Mu-type opioid receptor, 5.92.
Turning to `COc1ccc2c3c1O[C@@H]1c4[nH]c5ccccc5c4C(C)[C@H]4[C@@H](C2)N(C)CC[C@]314` (stereo partly specified), the pKi in experiment [1] is 7.57.
Turning to `C=C(C)CN1CC[C@]23c4c5ccc(O)c4O[C@@H]2c2[nH]c4ccccc4c2C(C)[C@H]3[C@H]1C5` (stereo partly specified), the results for the negative logarithm of the Ki (pKi) (in experiment [1]; in experiment [2]; at Mu-type opioid receptor) were 8.05, 6.07 and 5.97, respectively.
The matching figures for `C/C=C/CN1CC[C@]23c4c5ccc(O)c4O[C@@H]2c2[nH]c4ccccc4c2C(C)[C@H]3[C@H]1C5` (stereo partly specified): 8.64, 6.92 and 5.99.
On the same counts, the results for `CCCCCN1CC[C@]23c4c5ccc(O)c4O[C@@H]2c2[nH]c4ccccc4c2C[C@@]3(O)[C@H]1C5` are 7.80, 5.70 and 5.55.
In the case of `CC(C)N1CC[C@]23c4c5ccc(O)c4O[C@@H]2c2[nH]c4ccccc4c2C[C@@]3(O)[C@H]1C5`, the pKi in experiment [1] was 7.48; in experiment [2] it was 5.21.
For `CCO[C@@]12Cc3c([nH]c4ccccc34)[C@]3(C)Oc4c(O)ccc5c4[C@@]31CCN(C)[C@@H]2C5`, the pKi in experiment [2] was 6.54.
In the case of `O=C(Oc1ccc2c3c([nH]c2c1)[C@H]1Oc2c(O)ccc4c2[C@@]12CCN(CC1CC1)[C@H](C4)[C@]2(O)C3)c1ccccc1`, the pKi is 8.17 in experiment [1], 6.33 in experiment [2] and 6.17 at Mu-type opioid receptor.
The matching figures for `Oc1ccc2c3c1O[C@@H]1c4[nH]c5cccc(Oc6ccccc6)c5c4C[C@@]4(O)[C@@H](C2)N(CC2CC2)CC[C@]314`: 7.17, 5.88 and 5.84.
The matching figures for `Oc1ccc2c3c1O[C@@H]1c4[nH]c5cccc(-c6ccccc6)c5c4C[C@@]4(O)[C@@H](C2)N(CC2CC2)CC[C@]314`: 7.28, 5.53 and 5.82.
In the case of `Oc1cccc(-c2ccc3c4c2O[C@@H]2c5[nH]c6ccccc6c5C[C@@]5(O)[C@@H](C3)N(CC3CC3)CC[C@]425)c1`, the negative logarithm of the Ki (pKi) in experiment [1] was 5.79.
On to `O=C(Oc1cccc2c3c([nH]c12)[C@H]1Oc2c(O)ccc4c2[C@@]12CCN(CC1CC1)[C@H](C4)[C@]2(O)C3)c1ccccc1`, for which the pKi in experiment [1] was 8.51; in experiment [2] it was 6.59; on Mu-type opioid receptor it was 6.80.
In turn, `O[C@@]12Cc3c([nH]c4ccccc34)[C@H]3Oc4c(-c5ccccc5)ccc5c4[C@@]31CCN(CC1CC1)[C@@H]2C5` showed a pKi in experiment [1] of 4.98.
On to `Oc1ccc2c3c1O[C@@H]1c4[nH]c5ccc(-c6ccccc6)cc5c4C[C@@]4(O)[C@@H](C2)N(CC2CC2)CC[C@]314`, for which the pKi in experiment [1] was 7.80; in experiment [2], 6.45; at Mu-type opioid receptor it was 6.78.
In turn, `Cc1ccc2c3c1O[C@@H]1c4[nH]c5ccccc5c4C[C@@]4(O)[C@@H](C2)N(CC2CC2)CC[C@]314` gave a pKi in experiment [1] of 7.15.
As to `Oc1ccc2c3c1O[C@@H]1c4[nH]c5ccc(/C=C/c6ccccn6)cc5c4C[C@@]4(O)[C@@H](C2)N(CC2CC2)CC[C@]314`, the pKi was 8.43 in experiment [1], 7.70 in experiment [2] and 7.12 at Mu-type opioid receptor.
In the case of `C=Cc1ccc2c3c1O[C@@H]1c4[nH]c5ccccc5c4C[C@@]4(O)[C@@H](C2)N(CC2CC2)CC[C@]314`, the pKi in experiment [1] was 7.21; in experiment [2], 4.75.
The compound `O[C@@]12Cc3c([nH]c4ccccc34)[C@H]3Oc4c(-c5ccco5)ccc5c4[C@@]31CCN(CC1CC1)[C@@H]2C5` gave a pKi in experiment [1] of 6.02.
On to `Oc1ccc2c3c1O[C@@H]1c4[nH]c5c(-c6ccccc6)cccc5c4C[C@@]4(O)[C@@H](C2)N(CC2CC2)CC[C@]314`, for which the pKi in experiment [1] is 8.68; in experiment [2], 6.51; on Mu-type opioid receptor it was 6.91.
The matching figures for `O=C(Oc1ccc2[nH]c3c(c2c1)C[C@@]1(O)[C@H]2Cc4ccc(O)c5c4[C@@]1(CCN2CC1CC1)[C@@H]3O5)c1ccccc1`: 8.36, 7.09 and 7.09.
The matching figures for `Oc1ccc2c3c1O[C@@H]1c4[nH]c5cc(-c6ccccc6)ccc5c4C[C@@]4(O)[C@@H](C2)N(CC2CC2)CC[C@]314`: 7.74, 6.20 and 5.89.
The matching figures for `CC1c2c([nH]c3ccccc23)[C@H]2Oc3c(O)ccc4c3[C@@]23CCN(CC2CC2)[C@H](C4)[C@H]13` (stereo partly specified): 8.64, 7.44 and 7.18.
`Oc1ccc2c3c1O[C@@H]1c4[nH]c5cc(Oc6ccccc6)ccc5c4C[C@@]4(O)[C@@H](C2)N(CC2CC2)CC[C@]314`: the pKi in experiment [1] was 8.19; in experiment [2], 6.63; at Mu-type opioid receptor it was 6.63.
For the compound `O=C(Oc1cccc2[nH]c3c(c12)C[C@@]1(O)[C@H]2Cc4ccc(O)c5c4[C@@]1(CCN2CC1CC1)[C@@H]3O5)c1ccccc1`, the values for the pKi (in experiment [1]; in experiment [2]; on Mu-type opioid receptor) were 7.83, 6.27 and 6.44, respectively.
On the same counts, the results for `Oc1ccc2c3c1O[C@@H]1c4[nH]c5c(Oc6ccccc6)cccc5c4C[C@@]4(O)[C@@H](C2)N(CC2CC2)CC[C@]314` are 9.15, 7.47 and 7.47.
Take `Oc1ccc2c3c1O[C@@H]1c4[nH]c5ccc(Oc6ccccc6)cc5c4C[C@@]4(O)[C@@H](C2)N(CC2CC2)CC[C@]314`: the results for the pKi (in experiment [1]; in experiment [2]; on Mu-type opioid receptor) were 7.75, 7.12 and 6.53, respectively.
The compound `C=C(C)CN1CCC23c4c5ccc(OC)c4O[C@H]2c2oc4ccccc4c2C[C@@]3(O)C1C5` (stereo partly specified) had a pKi in experiment [1] of 7.36.
Regarding `C=C(C)CN1CCC23c4c5ccc(OC)c4O[C@H]2c2[nH]ncc2C[C@@]3(O)C1C5` (stereo partly specified), the figures for the pKi in experiment [1] and in experiment [2] were 5.62 and 5.51, respectively.
In experiment [2], `Oc1ccc2c3c1O[C@H]1c4[nH]c5ccccc5c4C[C@@]4(O)[C@@H](C2)N(CC2CC2)CC[C@]314` [NALTRINDOLE] had a pKi of 7.57.
